Reference: ChEMBL document CHEMBL1641536, “The identification, and optimisation of hERG selectivity, of a mixed NET/SERT re-uptake inhibitor for the treatment of pain” (Bioorg Med Chem Lett, 2011)

Key:
[1] = Half life in Wistar rat at 10 mg/kg, po; type: ADME, organism-based; set-up: dose 10 mg/kg, route oral; conditions: in vivo
Rattus norvegicus = experiment: AUC in Wistar rat at 1 mg/kg, iv; type: ADME, organism-based, Plasma; set-up: dose 1 mg/kg, route intravenous; conditions: in vivo
[2] = Oral bioavailability in Wistar rat at 10 mg/kg; type: ADME, organism-based; conditions: in vivo
[3] = Tmax in Wistar rat at 10 mg/kg, po; type: ADME, organism-based; set-up: dose 10 mg/kg, route oral; conditions: in vivo
[4] = Volume of distribution at steady state in Wistar rat at 1 mg/kg, iv; type: ADME, organism-based; set-up: dose 1 mg/kg, route intravenous; conditions: in vivo, read-out: Vdss

N#Cc1cc(O[C@@H]2C[C@H]3CC[C@@H](C2)N3)cc(-c2ncccc2C#N)c1
half-life [1]: 3.2 h
AUC (Rattus norvegicus): 563 ng·h/mL
bioavailability [2]: 34%
Tmax [3]: 1.7 h
Vd [4]: 6.9 L/kg
